US9822103B2, “Inhibitors of lysine methyl transferase” (priority 2013, dated 2017)

These molecules were tested against recombinant EZH2-641F complex (EZH2 Y641F/EED/SUZ12/RbAp48/AEBP2) (Homo sapiens (Human), UniProt Q15910, Y641F) (assay: EZH2 Histone Methyl Transferase Assay (scintillation proximity assay)). Conditions: 350 nM histone peptide substrate, 500 nM 3H-SAM, 3 hours room temperature.
Assay type: biochemical
Procedure: EZH2 Histone Methyl Transferase Assay
The effectiveness of compounds of the present invention as inhibitors of histone methyl transferases can be readily tested by assays known to those skilled in the art. For example, in vitro histone methyl transferase assays may be conducted with a relevant purified histone methyl transferase and an appropriate synthetic substrate to determine the inhibitory activity of the compounds. Assays for inhibition of EZH2 by the instant compounds were performed in 384-well plates with reaction mixtures containing 350 nM of histone peptide substrate (ATKAAR-K(Me2)-SAPATGGVKKPHRYRPG-GK(Biotin), 500 nM S-[methyl-^3H]adenosyl-L-methionine (55-85 Ci/mmol), 50 mM Tris-HCl (pH 9.0), 50 mM NaCl, 1 mM dithiothreitol, Tween-20 at 0.01% and fatty-acid free bovine serum albumin at 0.01%, and recombinant EZH2-641F complex (EZH2 Y641F/EED/SUZ12/RbAp48/AEBP2) at 5 nM (>98% purity, BPS Bioscience) or 15 nM (50% purity, in-house). Reaction mixtures were incubated at room temperature for 3 hours, and the reactions were terminated by 0.005% poly-L-lysine solution in 20 mM Tris-HCl (pH 7.5) and 150 mM NaCl. Reaction products were captured by binding to strepavidin-conjugated imaging beads. Incorporation of radioactive methyl group into the histone peptide substrate was determined in Leadseeker (GE Healthcare) by means of scintillation proximity assay. Dose response curves were generated to determine the concentration required to inhibit 50% of methyl transferase activity (EC50). Compounds were dissolved at 10 mM in dimethylsulfoxide (DMSO) and evaluated at eleven concentrations. EC50 values were derived by non-linear regression analysis.

recombinant EZH2-641F complex (EZH2 Y641F/EED/SUZ12/RbAp48/AEBP2), sequence (Q15910 whole entry Y641F): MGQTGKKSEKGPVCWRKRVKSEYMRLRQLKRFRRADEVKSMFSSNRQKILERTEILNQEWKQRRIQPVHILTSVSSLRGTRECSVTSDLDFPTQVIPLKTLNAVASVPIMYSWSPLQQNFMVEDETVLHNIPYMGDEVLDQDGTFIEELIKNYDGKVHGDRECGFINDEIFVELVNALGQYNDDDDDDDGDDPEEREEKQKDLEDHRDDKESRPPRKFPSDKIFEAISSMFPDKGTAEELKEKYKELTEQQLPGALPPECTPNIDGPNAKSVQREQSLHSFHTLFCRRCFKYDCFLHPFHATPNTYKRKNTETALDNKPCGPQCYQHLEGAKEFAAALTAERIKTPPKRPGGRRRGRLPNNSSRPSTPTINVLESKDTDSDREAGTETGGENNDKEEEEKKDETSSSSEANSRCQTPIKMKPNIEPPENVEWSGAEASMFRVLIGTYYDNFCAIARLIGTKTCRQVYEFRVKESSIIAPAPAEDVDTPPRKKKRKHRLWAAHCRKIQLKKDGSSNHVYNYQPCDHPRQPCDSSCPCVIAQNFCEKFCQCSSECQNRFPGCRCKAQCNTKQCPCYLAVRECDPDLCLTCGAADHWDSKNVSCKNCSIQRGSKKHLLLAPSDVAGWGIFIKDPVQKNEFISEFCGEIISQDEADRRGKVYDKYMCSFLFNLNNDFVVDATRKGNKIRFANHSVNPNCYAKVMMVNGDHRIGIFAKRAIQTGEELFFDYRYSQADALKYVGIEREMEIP
recombinant EZH2-641F complex (EZH2 Y641F/EED/SUZ12/RbAp48/AEBP2), sequence (O75530 whole entry partner): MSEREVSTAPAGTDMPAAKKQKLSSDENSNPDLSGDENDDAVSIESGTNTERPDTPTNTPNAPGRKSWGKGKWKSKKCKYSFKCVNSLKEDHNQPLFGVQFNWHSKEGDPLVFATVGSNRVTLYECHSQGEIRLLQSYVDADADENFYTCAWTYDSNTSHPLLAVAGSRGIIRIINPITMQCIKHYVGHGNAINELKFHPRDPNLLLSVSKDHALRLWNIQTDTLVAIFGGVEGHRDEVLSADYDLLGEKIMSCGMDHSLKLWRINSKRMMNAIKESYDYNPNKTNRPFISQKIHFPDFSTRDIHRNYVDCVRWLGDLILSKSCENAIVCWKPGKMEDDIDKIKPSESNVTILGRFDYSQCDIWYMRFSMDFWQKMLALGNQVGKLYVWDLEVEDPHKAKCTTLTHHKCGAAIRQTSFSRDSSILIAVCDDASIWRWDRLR
recombinant EZH2-641F complex (EZH2 Y641F/EED/SUZ12/RbAp48/AEBP2), sequence (Q15022 whole entry partner): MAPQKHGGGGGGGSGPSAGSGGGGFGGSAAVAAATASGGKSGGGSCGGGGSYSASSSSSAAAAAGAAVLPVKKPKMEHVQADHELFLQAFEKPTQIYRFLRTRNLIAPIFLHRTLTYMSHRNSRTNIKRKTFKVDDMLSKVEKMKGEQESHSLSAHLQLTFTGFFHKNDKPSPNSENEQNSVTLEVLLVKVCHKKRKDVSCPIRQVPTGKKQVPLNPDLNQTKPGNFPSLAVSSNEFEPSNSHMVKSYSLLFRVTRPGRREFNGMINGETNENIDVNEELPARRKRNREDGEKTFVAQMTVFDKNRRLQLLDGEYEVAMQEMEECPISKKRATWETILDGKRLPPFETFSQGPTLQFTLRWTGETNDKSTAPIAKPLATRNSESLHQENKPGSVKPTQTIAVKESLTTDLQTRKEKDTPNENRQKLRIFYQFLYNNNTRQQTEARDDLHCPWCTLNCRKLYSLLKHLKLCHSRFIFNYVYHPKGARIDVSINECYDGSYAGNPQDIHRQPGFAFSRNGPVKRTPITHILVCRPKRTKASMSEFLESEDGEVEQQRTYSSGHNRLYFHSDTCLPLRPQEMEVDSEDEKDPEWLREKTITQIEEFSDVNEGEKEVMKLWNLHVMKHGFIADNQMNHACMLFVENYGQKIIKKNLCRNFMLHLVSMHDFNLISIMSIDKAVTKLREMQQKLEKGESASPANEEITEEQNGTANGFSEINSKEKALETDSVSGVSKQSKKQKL
recombinant EZH2-641F complex (EZH2 Y641F/EED/SUZ12/RbAp48/AEBP2), sequence (Q09028 whole entry partner): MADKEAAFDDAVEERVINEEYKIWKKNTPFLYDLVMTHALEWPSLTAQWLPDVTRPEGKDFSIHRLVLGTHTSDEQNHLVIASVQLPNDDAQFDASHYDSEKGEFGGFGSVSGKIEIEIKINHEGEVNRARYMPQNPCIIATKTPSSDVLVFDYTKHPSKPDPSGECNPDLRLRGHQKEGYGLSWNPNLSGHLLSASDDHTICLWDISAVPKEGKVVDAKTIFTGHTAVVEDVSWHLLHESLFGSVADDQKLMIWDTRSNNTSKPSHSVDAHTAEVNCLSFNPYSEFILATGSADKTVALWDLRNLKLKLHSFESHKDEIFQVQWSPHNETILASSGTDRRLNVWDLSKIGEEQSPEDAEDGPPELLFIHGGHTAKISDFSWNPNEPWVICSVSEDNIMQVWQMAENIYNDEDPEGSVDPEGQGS
recombinant EZH2-641F complex (EZH2 Y641F/EED/SUZ12/RbAp48/AEBP2), sequence (Q6ZN18 whole entry partner): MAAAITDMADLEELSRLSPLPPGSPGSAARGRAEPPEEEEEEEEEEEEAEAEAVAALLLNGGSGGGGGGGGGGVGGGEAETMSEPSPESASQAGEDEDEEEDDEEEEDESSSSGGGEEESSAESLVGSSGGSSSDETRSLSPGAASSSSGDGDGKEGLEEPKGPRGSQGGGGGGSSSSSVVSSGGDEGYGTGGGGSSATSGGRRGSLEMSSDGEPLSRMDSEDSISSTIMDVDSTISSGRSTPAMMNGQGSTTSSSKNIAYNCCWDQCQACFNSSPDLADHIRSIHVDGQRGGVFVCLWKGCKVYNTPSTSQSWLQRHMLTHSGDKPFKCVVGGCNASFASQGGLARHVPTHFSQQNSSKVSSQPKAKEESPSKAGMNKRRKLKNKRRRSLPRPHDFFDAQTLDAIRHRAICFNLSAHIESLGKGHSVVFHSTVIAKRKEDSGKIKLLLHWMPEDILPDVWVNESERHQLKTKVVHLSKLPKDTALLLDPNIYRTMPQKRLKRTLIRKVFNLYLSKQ

Structure (SMILES) | IC50
C=CC1COc2cc(C(=O)NCc3c(C)cc(C)[nH]c3=O)cc(Br)c2O1 (stereo not shown) [Example 90, 8-Bromo-N-((4,6-dimethyl-2-oxo-1,2-dihydropyridin-3-yl)methyl)-2-vinyl-2,3-dihydrobenzo[b][1,4]dioxine-6-carboxamide] | > 1000 nM
Cc1cc(C)c(CNC(=O)c2cc3c(c(-c4ccc(CN5CCOCC5)cc4)c2)OC(C)CCC3)c(=O)[nH]1 (stereo not shown) [Example 50, N-((4,6-Dimethyl-2-oxo-1,2-dihydropyridin-3-yl)methyl)-2-methyl-9-(4-(morpholinomethyl)phenyl)-2,3,4,5-tetrahydrobenzo[b]oxepine-7-carboxamide] | > 1000 nM
COc1ccc(-c2cc(C(=O)NCc3c(C)cc(C)[nH]c3=O)cc3c2OCCC(C)C3)cn1 (stereo not shown) [Example 46, N-((4,6-Dimethyl-2-oxo-1,2-dihydropyridin-3-yl)methyl)-9-(6-methoxypyridin-3-yl)-4-methyl-2,3,4,5-tetrahydrobenzo[b]oxepine-7-carboxamide] | > 1000 nM
Cc1cc(C)c(CNC(=O)c2cc(-c3ccc(N4CCNCC4)nc3)c3c(c2)C(C)CO3)c(=O)[nH]1 (stereo not shown) [Example 29, N-((4,6-Dimethyl-2-oxo-1,2-dihydropyridin-3-yl)methyl)-3-methyl-7-(6-(piperazin-1-yl)pyridin-3-yl)-2,3-dihydrobenzofuran-5-carboxamide] | > 1000 nM
Cc1cc(C)c(CNC(=O)c2cc3c(c(-c4cnc(N5CCNCC5)nc4)c2)OC(C)(C)C3)c(=O)[nH]1 [Example 20, N-((4,6-Dimethyl-2-oxo-1,2-dihydropyridin-3-yl)methyl)-2,2-dimethyl-7-(2-(piperazin-1-yl)pyrimidin-5-yl)-2,3-dihydrobenzofuran-5-carboxamide] | < 500 nM
Cc1cc(C)c(CNC(=O)c2ccc3c(c2)C=CCC(C)O3)c(=O)[nH]1 (stereo not shown) [Example 47, N-((4,6-Dimethyl-2-oxo-1,2-dihydropyridin-3-yl)methyl)-2-methyl-2,3-dihydrobenzo[b]oxepine-7-carboxamide] | > 1000 nM
CCCc1cc(C)[nH]c(=O)c1CNC(=O)c1cc2c(c(-c3ccc(N4CCN(C(C)C)CC4)nc3)c1)OC(C)(C(C)C)C2 (stereo not shown) [Example 93, 2-Isopropyl-7-(6-(4-isopropylpiperazin-1-yl)pyridin-3-yl)-2-methyl-N-((6-methyl-2-oxo-4-propyl-1,2-dihydropyridin-3-yl)methyl)-2,3-dihydrobenzofuran-5-carboxamide] | < 500 nM
Cc1cc(C)c(CNC(=O)c2cc(Br)c3c(c2)CCC(C)(C)O3)c(=O)[nH]1 [Example 42, 8-Bromo-N-((4,6-dimethyl-2-oxo-1,2-dihydropyridin-3-yl)methyl)-2,2-dimethylchroman-6-carboxamide] | > 1000 nM
Cc1cc(C)c(CNC(=O)c2ccc3c(c2)CCCC(C)O3)c(=O)[nH]1 (stereo not shown) [Example 48, N-((4,6-Dimethyl-2-oxo-1,2-dihydropyridin-3-yl)methyl)-2-methyl-2,3,4,5-tetrahydrobenzo[b]oxepine-7-carboxamide] | > 1000 nM
Cc1cc(C)c(CNC(=O)c2cc(-c3ccc(N4CCNCC4)nc3)c3c(c2)[C@@H]2CCC[C@]2(C)O3)c(=O)[nH]1 (racemic) [Example 65, rac-(3aS,8bS)—N-((4,6-Dimethyl-2-oxo-1,2-dihydropyridin-3-yl)methyl)-3a-methyl-5-(6-(piperazin-1-yl)pyridin-3-yl)-2,3,3a,8b-tetrahydro-1H-cyclopenta[b]benzofuran-7-carboxamide] | < 500 nM
C=CC1(C)Cc2cc(C(=O)NCc3c(C)cc(C)[nH]c3=O)cc(Br)c2O1 (stereo not shown) [Example 57, 7-Bromo-N-((4,6-dimethyl-2-oxo-1,2-dihydropyridin-3-yl)methyl)-2-methyl-2-vinyl-2,3-dihydrobenzofuran-5-carboxamide] | > 1000 nM
Cc1cc(C)c(CNC(=O)c2cc(C)c3c(c2C)CC(C)(C)O3)c(=O)[nH]1 [Example 9, N-((4,6-Dimethyl-2-oxo-1,2-dihydropyridin-3-yl)methyl)-2,2,4,7-tetramethyl-2,3-dihydrobenzofuran-5-carboxamide] | > 1000 nM
Cc1cc(C)c(CNC(=O)c2ccc3c(c2C)CC(C)(C)O3)c(=O)[nH]1 [Example 8, N-((4,6-Dimethyl-2-oxo-1,2-dihydropyridin-3-yl)methyl)-2,2,4-trimethyl-2,3-dihydrobenzofuran-5-carboxamide] | > 1000 nM
Cc1cc(C)c(CNC(=O)c2cc(F)c3c(c2)CC(C)(C)O3)c(=O)[nH]1 [Example 4, N-((4,6-Dimethyl-2-oxo-1,2-dihydropyridin-3-yl)methyl)-7-fluoro-2,2-dimethyl-2,3-dihydrobenzofuran-5-carboxamide] | > 1000 nM
Cc1cc(C)c(CNC(=O)c2cc(Cc3ccccc3)c3c(c2)CC(C)(C)O3)c(=O)[nH]1 [Example 21, 7-Benzyl-N-((4,6-dimethyl-2-oxo-1,2-dihydropyridin-3-yl)methyl)-2,2-dimethyl-2,3-dihydrobenzofuran-5-carboxamide] | > 1000 nM
C=CC1(C)Cc2cc(C(=O)NCc3c(C)cc(C)[nH]c3=O)cc(-c3ccc(OC)nc3)c2O1 (stereo not shown) [Example 56, N-((4,6-Dimethyl-2-oxo-1,2-dihydropyridin-3-yl)methyl)-7-(6-methoxypyridin-3-yl)-2-methyl-2-vinyl-2,3-dihydrobenzofuran-5-carboxamide] | > 1000 nM
COc1ccc(-c2cc(C(=O)NCc3c(C)cc(C)[nH]c3=O)cc3c2OC(C)(C)C3)cn1 [Example 14, N-((4,6-Dimethyl-2-oxo-1,2-dihydropyridin-3-yl)methyl)-7-(6-methoxypyridin-3-yl)-2,2-dimethyl-2,3-dihydrobenzofuran-5-carboxamide] | 500 to 1000 nM
Cc1cc(C)c(CNC(=O)c2cc3c(c(-c4ccc(N5CCNCC5)nc4)c2)OCC(C)CC3)c(=O)[nH]1 (stereo not shown) [Example 55, N-((4,6-Dimethyl-2-oxo-1,2-dihydropyridin-3-yl)methyl)-3-methyl-9-(6-(piperazin-1-yl)pyridin-3-yl)-2,3,4,5-tetrahydrobenzo[b]oxepine-7-carboxamide] | > 1000 nM
Cc1cc(C)c(CNC(=O)c2cc(-c3ccc(CN4CCCCC4)cc3)c3c(c2)[C@@H]2CCC[C@]2(C)O3)c(=O)[nH]1 (racemic) [Example 67, rac-(3aS,8bS)—N-((4,6-Dimethyl-2-oxo-1,2-dihydropyridin-3-yl)methyl)-3a-methyl-5-(4-(piperidin-1-ylmethyl)phenyl)-2,3,3a,8b-tetrahydro-1H-cyclopenta[b]benzofuran-7-carboxamide] | 500 to 1000 nM
Cc1cc(C)c(CNC(=O)c2cc3c(c(-c4ccc(CN5CCOCC5)cc4)c2)OC(C)(C)C3)c(=O)[nH]1 [Example 10, N-((4,6-Dimethyl-2-oxo-1,2-dihydropyridin-3-yl)methyl)-2,2-dimethyl-7-(4-(morpholinomethyl)phenyl)-2,3-dihydrobenzofuran-5-carboxamide] | > 1000 nM
Cc1cc(C)c(CNC(=O)c2cc(-c3ccc(N4CCNCC4)nc3)c3c(c2C)CC(C)(C)O3)c(=O)[nH]1 [Example 26, N-((4,6-Dimethyl-2-oxo-1,2-dihydropyridin-3-yl)methyl)-2,2,4-trimethyl-7-(6-(piperazin-1-yl)pyridin-3-yl)-2,3-dihydrobenzofuran-5-carboxamide] | < 500 nM
COc1ccc(-c2cc(C(=O)NCc3c(C)cc(C)[nH]c3=O)cc3c2OCC32CCCC2)cn1 [Example 76, N-((4,6-Dimethyl-2-oxo-1,2-dihydropyridin-3-yl)methyl)-7-(6-methoxypyridin-3-yl)-2H-spiro[benzofuran-3,1′-cyclopentane]-5-carboxamide] | > 1000 nM
